Earlier results as cited in PMC9046186, “A distinctive ligand recognition mechanism by the human vasoactive intestinal polypeptide receptor 2” (Nature Communications, 2022).

How the values were obtained:
[1] = test system: VIP1R; conditions: introduction, Fig. 1a, b; no reference given
[2] = test system: VIP2R; conditions: introduction, Fig. 1a, b; no reference given

Row | Substance | affinity at VIP1R [1] | affinity at VIP2R [2]
1 | Vasoactive intestinal peptide [VIP] | comparable affinity | comparable affinity
2 | pituitary adenylate cyclase-activating polypeptide [PACAP38] | comparable affinity | comparable affinity
